Test results taken from patent US10981926B2 (Janssen Pharmaceutica NV, priority 2016, dated 2021).

Key:
[1] = molecular target: T1, wild-type Androgen Receptor (AR-wt) (Homo sapiens (Human), UniProt P10275); assay: LNCaP-AR-wt AG reporter assay (agonist mode); type: cell-based; details: for EC50: pEC50 = −Log10(EC50 in Molar), read-out: LNCaP-AR-wt AG pEC50 (converted); for Emax: read-out: LNCaP-AR-wt AG MAX % Stim
[2] = molecular target: T2, F876L mutant Androgen Receptor (AR-F876L) (Homo sapiens (Human), UniProt P10275, F877L); assay: LNCaP-AR-F876L ANT reporter assay (antagonist mode); type: cell-based; details: for IC50: pIC50 = −Log10(IC50 in Molar), read-out: LNCaP-AR-F876L ANT pIC50 (converted); for Emax: read-out: LNCaP-AR-F876L ANT MAX % Inh
rGABA-gated Cl− channel = assay: GABA-Gated Cl Channel Antagonist Radioligand Binding Assay; design: species or system rat; details: 10 μM single point, [35S]-TBPS, cerebral cortex membrane homogenates
Summary of the method: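 Rat cerebral cortex membranes (120 μg protein) incubated 120 min at 22° C with 3 nM […] in 50 mM Na2HPO4/KH2PO4 pH 7.4, 500 mM NaCl; nonspecific binding defined with 20 μM picrotoxinin. Bound label counted after filtration; values are percent inhibition of specific binding at 10 μM compound.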

[3] = molecular target: T2, F876L mutant Androgen Receptor (AR-F876L); assay: LNCaP-AR-F876L AG reporter assay (agonist mode); type: cell-based; details: for EC50: pEC50 = −Log10(EC50 in Molar), read-out: LNCaP-AR-F876L AG pEC50 (converted); for Emax: read-out: LNCaP-AR-F876L AG MAX % Stim
[4] = molecular target: T1, wild-type Androgen Receptor (AR-wt); assay: LNCaP-AR-wt ANT reporter assay (antagonist mode); type: cell-based; details: for IC50: pIC50 = −Log10(IC50 in Molar), read-out: LNCaP-AR-wt ANT pIC50 (converted); for Emax: read-out: LNCaP-AR-wt ANT MAX % Inh
[5] = maximum % stimulation (agonist response) over the tested concentration range
[6] = maximum % inhibition of R1881 control response over the tested concentration range
[7] = agonist mode, maximum % stimulation over tested concentration range
[8] = antagonist mode, maximum % inhibition of R1881 control response over tested concentration range

T2 sequence (P10275 whole entry F877L): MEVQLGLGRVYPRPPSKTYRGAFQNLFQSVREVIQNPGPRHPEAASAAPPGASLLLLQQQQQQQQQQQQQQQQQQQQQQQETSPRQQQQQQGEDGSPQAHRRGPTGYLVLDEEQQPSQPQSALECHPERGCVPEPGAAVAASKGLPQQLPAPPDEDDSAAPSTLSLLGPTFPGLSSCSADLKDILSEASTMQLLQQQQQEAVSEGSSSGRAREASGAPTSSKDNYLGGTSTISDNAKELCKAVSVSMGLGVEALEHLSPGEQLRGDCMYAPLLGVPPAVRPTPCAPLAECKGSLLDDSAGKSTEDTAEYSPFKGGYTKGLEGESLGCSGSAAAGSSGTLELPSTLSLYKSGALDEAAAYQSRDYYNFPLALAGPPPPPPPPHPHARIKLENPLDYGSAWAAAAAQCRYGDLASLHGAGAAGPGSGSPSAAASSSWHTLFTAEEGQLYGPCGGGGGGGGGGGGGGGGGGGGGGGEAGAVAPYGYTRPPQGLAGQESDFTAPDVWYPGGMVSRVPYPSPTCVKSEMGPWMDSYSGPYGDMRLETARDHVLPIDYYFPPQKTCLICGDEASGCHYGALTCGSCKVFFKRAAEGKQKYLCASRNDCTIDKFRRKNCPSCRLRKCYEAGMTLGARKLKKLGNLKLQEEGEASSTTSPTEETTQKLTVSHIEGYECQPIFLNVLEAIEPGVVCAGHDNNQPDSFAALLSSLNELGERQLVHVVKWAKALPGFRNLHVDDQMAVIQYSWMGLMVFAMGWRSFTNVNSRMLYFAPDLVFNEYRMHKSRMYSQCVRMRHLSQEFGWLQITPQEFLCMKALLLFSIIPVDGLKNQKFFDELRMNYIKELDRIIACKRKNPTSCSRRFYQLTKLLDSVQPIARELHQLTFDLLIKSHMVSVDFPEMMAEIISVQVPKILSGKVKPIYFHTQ
T1 sequence (P10275 whole entry): as the sequence (P10275 whole entry F877L) above, with L877F counted along it

N#Cc1ncc(N2C(=O)C3(CCC3)N(c3ccc(OC4CCC(N)CC4)cc3)C2=S)cc1C(F)(F)F (stereo not drawn) [Cpd 68, 5-[8-[4-(4-aminocyclohexoxy)phenyl]-5-oxo-7-thioxo-6,8-diazaspiro[3.4]octan-6-yl]-3-(trifluoromethyl)pyridine-2-carbonitrile]
EC50 ([1]; agonist mode): > 15100 nM | Emax [1, 5]: 0.6% | IC50 ([2]; antagonist mode): 17.4 nM | Emax [2, 6]: 99.7% | rGABA-gated Cl− channel % inh @10 μM (rGABA-gated Cl− channel): 34.9% | EC50 ([3]; agonist mode): > 15100 nM | Emax [3, 5]: 0.4% | IC50 ([4]; antagonist mode): 39.8 nM | Emax [4, 6]: 101%

N#Cc1ncc(N2C(=O)C3(CCC3)N(c3ccc(OCCN4CCC5(CCOC5)CC4)cc3)C2=S)cc1C(F)(F)F [Cpd 82, 5-[8-[4-[2-(3-oxa-8-azaspiro[4.5]decan-8-yl)ethoxy]phenyl]-5-oxo-7-thioxo-6,8-diazaspiro[3.4]octan-6-yl]-3-(trifluoromethyl)pyridine-2-carbonitrile]
EC50 ([1]; agonist mode): > 15100 nM | Emax [1, 5]: 0.4% | IC50 ([2]; antagonist mode): 100 nM | Emax [2, 6]: 97.5% | rGABA-gated Cl− channel % inh @10 μM (rGABA-gated Cl− channel): 36.7% | EC50 ([3]; agonist mode): > 15100 nM | Emax [3, 5]: 0.8% | IC50 ([4]; antagonist mode): 155 nM | Emax [4, 6]: 98.7%

CN1CC(Oc2ccc(N3C(=S)N(c4cnc(C#N)c(C(F)(F)F)c4)C(=O)C34CCC4)cc2)C1 [Cpd 84, 5-[8-[4-(1-methylazetidin-3-yl)oxyphenyl]-5-oxo-7-thioxo-6,8-diazaspiro[3.4]octan-6-yl]-3-(trifluoromethyl)pyridine-2-carbonitrile]
EC50 ([1]; agonist mode): > 15100 nM | Emax [1, 5]: 0.2% | IC50 ([2]; antagonist mode): 81.3 nM | Emax [2, 6]: 101% | rGABA-gated Cl− channel % inh @10 μM (rGABA-gated Cl− channel): 21.9% | EC50 ([3]; agonist mode): > 15100 nM | Emax [3, 5]: 0.1% | IC50 ([4]; antagonist mode): 525 nM | Emax [4, 6]: 101%

N#Cc1ncc(N2C(=O)C3(CCC3)N(c3ccc(C4CNCCO4)cc3)C2=S)cc1C(F)(F)F (stereo not drawn) [Cpd 243, 5-[8-(4-morpholin-2-ylphenyl)-5-oxo-7-thioxo-6,8-diazaspiro[3.4]octan-6-yl]-3-(trifluoromethyl)pyridine-2-carbonitrile]
Emax [1, 7]: 0.2% | EC50 ([1]; agonist mode): > 15100 nM | Emax [2, 8]: 100% | IC50 ([2]; antagonist mode): 347 nM | rGABA-gated Cl− channel % inh @10 μM (rGABA-gated Cl− channel): 57.2% | Emax [3, 7]: 0.7% | EC50 ([3]; agonist mode): > 15100 nM | Emax [4, 8]: 101% | IC50 ([4]; antagonist mode): 1620 nM

N#Cc1ncc(N2C(=O)C3(CCC3)N(c3ccc(OCC4CNCCO4)cc3)C2=S)cc1C(F)(F)F (stereo not drawn) [Cpd 74, 5-[8-[4-(morpholin-2-ylmethoxy)phenyl]-5-oxo-7-thioxo-6,8-diazaspiro[3.4]octan-6-yl]-3-(trifluoromethyl)pyridine-2-carbonitrile]
EC50 ([1]; agonist mode): > 15100 nM | Emax [1, 5]: 0.2% | IC50 ([2]; antagonist mode): 21.4 nM | Emax [2, 6]: 98.1% | rGABA-gated Cl− channel % inh @10 μM (rGABA-gated Cl− channel): 13.9% | EC50 ([3]; agonist mode): > 15100 nM | Emax [3, 5]: 1.5% | IC50 ([4]; antagonist mode): 72.4 nM | Emax [4, 6]: 100%

COCCN1CCC(Oc2ccc(N3C(=S)N(c4cnc(C#N)c(C)c4)C(=O)C34CCC4)cc2)CC1 [Cpd 37, 5-[8-[4-[[1-(2-methoxyethyl)-4-piperidyl]oxy]phenyl]-5-oxo-7-thioxo-6,8-diazaspiro[3.4]octan-6-yl]-3-methyl-pyridine-2-carbonitrile]
EC50 ([1]; agonist mode): > 15100 nM | Emax [1, 5]: 0.1% | IC50 ([2]; antagonist mode): 407 nM | Emax [2, 6]: 99.5% | rGABA-gated Cl− channel % inh @10 μM (rGABA-gated Cl− channel): 18.8% | EC50 ([3]; agonist mode): > 15100 nM | Emax [3, 5]: 0% | IC50 ([4]; antagonist mode): 1260 nM | Emax [4, 6]: 99.8%

N#Cc1ncc(N2C(=O)C3(CCC3)N(c3ccc4nn(C5CCNCC5)cc4c3)C2=S)cc1C(F)(F)F [Cpd 115, 5-[5-oxo-8-[2-(4-piperidyl)indazol-5-yl]-7-thioxo-6,8-diazaspiro[3.4]octan-6-yl]-3-(trifluoromethyl)pyridine-2-carbonitrile]
EC50 ([1]; agonist mode): > 15100 nM | Emax [1, 5]: -0.1% | IC50 ([2]; antagonist mode): 288 nM | Emax [2, 6]: 104% | rGABA-gated Cl− channel % inh @10 μM (rGABA-gated Cl− channel): 40.0% | EC50 ([3]; agonist mode): > 15100 nM | Emax [3, 5]: 0.1% | IC50 ([4]; antagonist mode): 575 nM | Emax [4, 6]: 87%

N#Cc1ncc(N2C(=O)C3(CCC3)N(c3ccc(OC4CCN(CCO)CC4)nc3)C2=S)cc1C(F)(F)F [Cpd 63, 5-[8-[6-[[1-(2-hydroxyethyl)-4-piperidyl]oxy]-3-pyridyl]-5-oxo-7-thioxo-6,8-diazaspiro[3.4]octan-6-yl]-3-(trifluoromethyl)pyridine-2-carbonitrile]
EC50 ([1]; agonist mode): > 15100 nM | Emax [1, 5]: 0% | IC50 ([2]; antagonist mode): 69.2 nM | Emax [2, 6]: 101% | rGABA-gated Cl− channel % inh @10 μM (rGABA-gated Cl− channel): 13.0% | EC50 ([3]; agonist mode): > 15100 nM | Emax [3, 5]: 0.1% | IC50 ([4]; antagonist mode): 81.3 nM | Emax [4, 6]: 102%

Cc1cc(N2C(=O)C3(CCC3)N(c3ccc(OC4CCN(CC#N)CC4)nc3)C2=S)cnc1C#N [Cpd 90, 5-[8-[6-[[1-(cyanomethyl)-4-piperidyl]oxy]-3-pyridyl]-5-oxo-7-thioxo-6,8-diazaspiro[3.4]octan-6-yl]-3-methyl-pyridine-2-carbonitrile]
EC50 ([1]; agonist mode): > 15100 nM | Emax [1, 5]: 0.6% | IC50 ([2]; antagonist mode): 67.6 nM | Emax [2, 6]: 99.3% | rGABA-gated Cl− channel % inh @10 μM (rGABA-gated Cl− channel): 20.8% | EC50 ([3]; agonist mode): > 15100 nM | Emax [3, 5]: 0.9% | IC50 ([4]; antagonist mode): 89.1 nM | Emax [4, 6]: 99.7%

N#Cc1ncc(N2C(=O)C3(CCC3)N(c3ccc(O[C@H]4CCN[C@H](CO)C4)cc3)C2=S)cc1C(F)(F)F (racemic) [Cpd 222, 5-[8-(2SR,4SR)[4-[[2-(hydroxymethyl)-4-piperidyl]oxy]phenyl]-5-oxo-7-thioxo-6,8-diazaspiro[3.4]octan-6-yl]-3-(trifluoromethyl)pyridine-2-carbonitrile]
Emax [1, 7]: 2.3% | EC50 ([1]; agonist mode): > 15100 nM | Emax [2, 8]: 99.6% | IC50 ([2]; antagonist mode): 81.3 nM | rGABA-gated Cl− channel % inh @10 μM (rGABA-gated Cl− channel): 61.4% | Emax [3, 7]: 0.2% | EC50 ([3]; agonist mode): > 15100 nM | Emax [4, 8]: 99.6% | IC50 ([4]; antagonist mode): 129 nM

CC(=O)N1CCC(n2ncc3cc(N4C(=S)N(c5cnc(C#N)c(C(F)(F)F)c5)C(=O)C45CCC5)ccc32)CC1 [Cpd 131, 5-[8-[1-(1-acetyl-4-piperidyl)indazol-5-yl]-5-oxo-7-thioxo-6,8-diazaspiro[3.4]octan-6-yl]-3-(trifluoromethyl)pyridine-2-carbonitrile]
EC50 ([1]; agonist mode): > 15100 nM | Emax [1, 5]: -0.1% | IC50 ([2]; antagonist mode): 708 nM | Emax [2, 6]: 97.9% | rGABA-gated Cl− channel % inh @10 μM (rGABA-gated Cl− channel): 97.4% | EC50 ([3]; agonist mode): > 15100 nM | Emax [3, 5]: 0.3% | IC50 ([4]; antagonist mode): 589 nM | Emax [4, 6]: 101%

N#Cc1ncc(N2C(=O)C3(CCC3)N(c3ccc(SC4CCNCC4)cc3)C2=S)cc1C(F)(F)F [Cpd 240, 5-[5-oxo-8-[4-(4-piperidylsulfanyl)phenyl]-7-thioxo-6,8-diazaspiro[3.4]octan-6-yl]-3-(trifluoromethyl)pyridine-2-carbonitrile]
Emax [1, 7]: 1% | EC50 ([1]; agonist mode): > 15100 nM | Emax [2, 8]: 105% | IC50 ([2]; antagonist mode): 224 nM | rGABA-gated Cl− channel % inh @10 μM (rGABA-gated Cl− channel): 44.7% | Emax [3, 7]: 0% | EC50 ([3]; agonist mode): > 15100 nM | Emax [4, 8]: 106% | IC50 ([4]; antagonist mode): 457 nM

N#CCN1CCC(Oc2ccc(N3C(=S)N(c4cnc(C#N)c(C(F)(F)F)c4)C(=O)C34CCC4)cn2)CC1 [Cpd 60, 5-[8-[6-[[1-(cyanomethyl)-4-piperidyl]oxy]-3-pyridyl]-5-oxo-7-thioxo-6,8-diazaspiro[3.4]octan-6-yl]-3-(trifluoromethyl)pyridine-2-carbonitrile]
EC50 ([1]; agonist mode): > 15100 nM | Emax [1, 5]: 0.8% | IC50 ([2]; antagonist mode): 9.55 nM | Emax [2, 6]: 98.1% | rGABA-gated Cl− channel % inh @10 μM (rGABA-gated Cl− channel): 91.5% | EC50 ([3]; agonist mode): > 15100 nM | Emax [3, 5]: 0.6% | IC50 ([4]; antagonist mode): 22.9 nM | Emax [4, 6]: 99.2%
